Experimental data reported in patent publication US20240197876A1, “METHODS TO DETERMINE TREATMENT EFFICACY WITH GAMMA-DELTA T CELLS” (THE TRUSTEES OF THE UNIVERSITY OF PENNSYLVANIA, priority 2021, published 2024).
Entries after “also recorded” stand apart in the source; their conditions may differ.

Legend:
[1] = system: Vδ2 T cells; experiment: Vδ2 T cell expansion from cultured PBMCs (γδTCR activator with or without TLR agonist), FACS; assay type: cell-based, human; settings: for co-stimulatory effect on IPP induced Vδ2 T cell expansion: IPP 5 μg/ml plus TLR agonist, day 5 or 7
Method: Primary cells and cell lines: PBMCs and monocytes were obtained from Human Immunology Core at the University of Pennsylvania, which were obtained from healthy donors-Using informed consent and approved by Institutional Review Board. For γδ T cell expansion, PBMCs were cultured with RPMI1640 media supplemented with 10% FBS (HyClone, GE Healthcare, UT, USA), 100 U/ml Penicillin-Streptomycin, 2 mM L-Glutamine, 1/1000 2-Mercaptoethanol (2-Me) (Gibco, ThermoFisher Scientific, MA, USA) (or without 2-Me as indicated) and 200 units/ml of Recombinant Human IL-2 (PeproTech, NJ, USA) in 24-well microplates, new media added and supplemented every other day. TCR-γδ T cells were expanded in 24-well tissue culture treated microplates that were coated with mouse-monoclonal Anti-Pan-TCR γδ antibody (1.0 ug/ml in PBS; IMMU510, IM1349, Beckman). For naive γδT cell isolation, PBMCs were purified using a commercial Human TCR γ/δ T Cell Isolation Kit (Miltenyi Biotec, Germany). […] Human melanoma cell lines A375, A2058, WM9, 903 were obtained from Meenhard Herlyn's laboratory (The Wistar Institute, Philadelphia, PA, USA) and they were routinely tested for mycoplasma and DNA fingerprinted (Liu, et al., 2018, Nat Commun 9: 5426). Lung cancer cell line H1975, Colon cancer cell line HT-29, Gastric cancer cell line NCI-N87 were purchased from ATCC. Daudi cells were obtained from Andrei Thomas-Tikhonenko Lab at the University of Pennsylvania and Children's Hospital of Philadelphia, K562 cells were obtained from Michael Milone Lab at the University of Pennsylvania. BRAFi and MEKi combination therapy resistant (CR) cell lines WM9-CR and A2058-CR were generated as described before (Lu, et al., 2017, Nature 550: 133-136).
Flow cytometry: PBMCs and γδ T cell phenotypes were analyzed by flow cytometry. Briefly, single-cell suspensions were surface-stained for 30 min at 4° C. in dark, and […] staining was performed for 60 min after fixation and permeabilization using a True-Nuclear™ Transcription Factor Buffer Set (BioLegend, CA, USA). CFSE Cell Proliferation Kit for flow cytometry was purchased from Invitrogen (ThermoFisher Scientific, MA, USA). Fluorescein-conjugated antibodies were used. Data were acquired on LSRA/B or Fortessa B flow cytometers (BD Biosciences, NJ, USA) at Flow Cytometry and Cell Sorting Resource Laboratory at the University of Pennsylvania and analyzed with FlowJo software (Tree Star, Ashland, OR).

[2] = system: UACC903 and A2058 melanoma cells; experiment: Cytotoxicity and 3-D tumor spheroid assays with γδ T cells expanded by ZOL or anti-γδTCR antibody; assay type: cell-based, human
Method: Cytotoxicity assays. The CytoTox 96® Non-Radioactive Cytotoxicity Assay (Promega, Madison, WI) was applied to measure the cytotoxicity of expanded Vγ9Vδ2 T cells. In this respect, A375 (2×10^4 cells/well), A2058 (2×10^4 cells/well), and 903 (2×10^4 cells/well) melanoma cells were used as target cells and seeded into a 96-round well plate, and expanded Vγ9Vδ2 T cells (1×10^5 cells/well) served as effector cells were directly added to individual wells incubated overnight. The supernatants were collected and the lactate dehydrogenase activity was detected. Controls for spontaneous lactate dehydrogenase release from effector and target cells, the target maximum release, as well as the culture medium background were measured simultaneously (Zhou et al., Cell Mol Immunol. 2012; 9(1):34-44).
3-D Spheroid Assays. The 96-well plate was pre-coated with 50 μL 1.5% Agarose (LONZA, Rockland, ME). Melanoma cells (A2058 and UACC 903 cells) were labeled with CellTracker™ Orange CMRA Dye (Thermo Fisher Scientific, Waltham, MA) and seeded at 2×10^4 cells/well and allowed to form spheroids over 48 hours. […] Infiltrated spheroids were analyzed at 48 h using confocal microscope (Leica, Wetzlar, Germany). Spheroids were divided into single cells and CFSE+ cells infiltrating the spheroids was counted by flow cytometry.

[3] = system: Vδ2 T cells in Hu-Mice; experiment: Vδ2 T cell expansion from PBMCs of humanized mice; assay type: cell-based; settings: PBMCs from four Hu-Mice, 10 days
Excerpt: Humanized Mice (Hu-Mice): Humanized mice were generated at the Wistar Institute as described (Somasundaram, et al., 2021, Nat Commun 12: 346). Briefly, the humanized mouse model is developed by reconstituting immunodeficient NSG mice with fetal liver-derived CD34+ human hematopoietic stem cells, grafted intravenously, and autologous fetal thymus chunks, grafted under the renal capsule, to promote rapid human T-cell differentiation.
NSG mice engrafted with human hematopoietic stem (CD34+) cells or peripheral blood leukocytes (Hu-Mice) are a useful tool to study immunotherapy (Somasundaram, et al., 2021, Nat Commun 12: 346). However, it was previously unclear whether these mice have functional human γδ T cells. As shown herein, CD3^+VS2^+ T cells are present in the PBMCs of Hu-Mice (FIG. 32A). PBMCs from four Hu-Mice were cultured using human PBMCs culture media and were stimulated with IPP plus resiquimod, or ZOL, for 10 days.

[4] = system: γδ T cells; experiment: Expansion of γδ T cells ex vivo from PBMC with ZOL or anti-γδTCR Ab plus IL-2; assay type: cell-based, human
Method: Expansion of γδ T cells ex vivo. PBMC were plated at 2×10^6 cells per well in 24-well flat-bottomed plates at 37° C. in a humidified atmosphere of 5% CO2. The standard culture medium contains RPMI 1640 (Gibco), containing 10% FBS (Gibco), 2 mM L-glutamine (Gibco), 100 U/ml penicillin (Gibco), streptomycin (Gibco) and 200 IU/ml IL-2 (PeproTech, Rocky Hill, NJ) (Castella et al., Nature communications. 2017; 8:15663.) 5 μM zoledronic acid (Sigma-Aldrich, St. Louis, MO USA) was added into the culture medium at the first day and the medium containing IL-2 changed every two days. In some cases, 24-well plates were pre-coated with 0.5 μg/ml anti-γδTCR Ab (Immunotech, Beckman Coulter, Fullerton, CA) and then PBMCs were added to the anti-γδTCR Ab-coated wells and cultured in the standard culture medium mentioned above. The viability and cell number of γδ T cells were evaluated by the trypan blue staining assay, and the percentage of γδ T cells counted by flow cytometry (Ryan et al., Proc NatlAcadSci USA. 2016; 113(50):14378-83).
Antibodies and flow cytometry analyses. […] Samples were acquired using a LSR-A flow cytometer (BD Biosciences, Baltimore, MD) and analyzed using FlowJo software (Tree Star Inc., Ashland, OR).

[5] = system: purified γδ T cells; experiment: CFSE proliferation of purified naive γδ T cells; assay type: cell-based, human; settings: ZOL+PBMCs group, same-donor PBMCs not labeled
Method: Primary cells and cell lines: PBMCs and monocytes were obtained from Human Immunology Core at the University of Pennsylvania, which were obtained from healthy donors-Using informed consent and approved by Institutional Review Board. For γδ T cell expansion, PBMCs were cultured with RPMI1640 media supplemented with 10% FBS (HyClone, GE Healthcare, UT, USA), 100 U/ml Penicillin-Streptomycin, 2 mM L-Glutamine, 1/1000 2-Mercaptoethanol (2-Me) (Gibco, ThermoFisher Scientific, MA, USA) (or without 2-Me as indicated) and 200 units/ml of Recombinant Human IL-2 (PeproTech, NJ, USA) in 24-well microplates, new media added and supplemented every other day. TCR-γδ T cells were expanded in 24-well tissue culture treated microplates that were coated with mouse-monoclonal Anti-Pan-TCR γδ antibody (1.0 ug/ml in PBS; IMMU510, IM1349, Beckman). For naive γδT cell isolation, PBMCs were purified using a commercial Human TCR γ/δ T Cell Isolation Kit (Miltenyi Biotec, Germany). Purified naive γδ T cells routinely exceeded >95% […] by flow cytometry. […]
Flow cytometry: PBMCs and γδ T cell phenotypes were analyzed by flow cytometry. […] Data were acquired on LSRA/B or Fortessa B flow cytometers (BD Biosciences, NJ, USA) at Flow Cytometry and Cell Sorting Resource Laboratory at the University of Pennsylvania and analyzed with FlowJo software (Tree Star, Ashland, OR).

[6] = system: gastric, colon and lung cancer cells; experiment: LDH release cytotoxicity of expanded γδ T cells to epithelial cancer cell lines; assay type: cell-based, human; settings: E:T 5:1; resiquimod 10 μg/ml
[7] = system: monocytes
Method: FIG. 30C provides data for purified monocytes cultured with resiquimod for 24 h with indicated concentration, and the viability and mortality were detected with Annexin V/7-AAD apoptosis kit and flow cytometry.

[8] = system: melanoma cells; experiment: LDH release cytotoxicity of expanded γδ T cells to melanoma cell lines; assay type: cell-based, human; settings: E:T 5:1
Method: Cytotoxicity: Cytotoxicity of γδ T cells against melanoma cells was measured by lactate dehydrogenase (LDH) release using the CytoTox 96® Non-Radioactive Cytotoxicity Assay kit (G1780, Promega, WI, USA) as described (Zhu, et al., 2016, Molecular Medicine 22: 737-746). Briefly, Melanoma cells were seeded at 4×10^4 cells/well in 50 μl standard growth medium in 96-well plates, while γδ T cells were seeded at effective target ratio E:T=5:1 in the same volume of PBMC culture media at the same time. After the indicated time, plates were spin down briefly and 50 μl supernatants were then harvested for further analysis. Absorbance at 490 nm was read using a BioTek Synergy HT reader (BioTek Instruments, VT, USA) after LDH activity detection, the percentage of cytotoxicity was calculated as (Experimental-Effector Spontaneous-Target Spontaneous)/(Target Maximum-Target Spontaneous)×100.

SMILES: OCCS [2-mercaptoethanol]
- effect of antioxidant in the culture medium on Vδ2 T cell expansion ([1]; IPP plus resiquimod, 8 days, medium with or without 2-Me): did not affect Vδ2 T cell expansion

SMILES: NC(=O)[C@H]1CCS[C@@H]2C[C@]3(CCCN3C(=O)Cc3ccc(NC(=O)COc4ccc(Cl)cc4Cl)cc3)C(=O)N12 [ST2825]
- effect of MyD88 inhibition on resiquimod co-stimulation of Vδ2 T cell expansion ([1]; PBMCs with IPP or IPP plus resiquimod): eliminated the co-stimulatory function of resiquimod

SMILES: O=P(O)(O)C(O)(Cn1ccnc1)P(=O)(O)O [ZOL, zoledronate]
- cytotoxicity of tumor spheroid assays [2]: comparable results
- expansion of peripheral Vδ2 T cells in Hu-Mice [3]: approximately a thousand-fold expansion
- γδ T cell subsets expanded ([4]; PBMCs expanded by ZOL or anti-TCRγδ Ab): preferentially expanded Vδ2 cells
- γδ T cell expansion, ZOL compared with anti-γδTCR antibody ([4]; PBMCs of healthy donors, 10 day expansion with IL-2): significantly better than that of anti-γδT TCR antibody; also recorded: better expansion of γδ T cells than anti-γδTCR antibody
- Vδ2 T cell (CFSE+) proliferation when PBMCs were added to the culture system [5]: regained the capability of inducing Vδ2 T cells (CFSE+) proliferation

SMILES: CCNCc1nc2c(N)nc3ccccc3c2n1CC(C)(C)O [gardiquimod]
- co-stimulatory effect on IPP induced Vδ2 T cell expansion ([1]; PBMCs): promoted Vδ2 T cell expansion

SMILES: CC(C)Cn1cnc2c(N)nc3ccccc3c21 [imiquimod]
- co-stimulatory effect on IPP induced Vδ2 T cell expansion ([1]; PBMCs): promoted Vδ2 T cell expansion

SMILES: CCOCc1nc2c(N)nc3ccccc3c2n1CC(C)(C)O [resiquimod]
- cytotoxic effect of γδ T cells expanded using pan-anti-γδTCR antibody to epithelial cancer cells [6]: significantly enhanced the cytotoxic effect
- efficacy and cytotoxicity compared among three TLR7/8 agonists ([1]; co-stimulation with IPP, PBMCs, day 7): best efficacy with the least cytotoxicity
- apoptosis and cell death of monocytes [7]: induced apoptosis and cell death in some monocytes
- cytotoxic effect of γδ T cells expanded using pan-anti-γδTCR antibody to melanoma cell lines ([8]; A375, 12051u, 903, A2058, WM9, A2058CR, WM9CR, resiquimod 10 μg/ml): significantly enhanced the cytotoxic effect
- cytotoxic effect of γδ T cells expanded using IPP ([8]; A375 and A2058, about 13 days expansion with or without resiquimod): significantly enhanced the cytotoxic effect

SMILES: CCC(=O)N1CCN(c2ccc(-n3c(=O)ccc4cnc5ccc(-c6cnc7ccccc7c6)cc5c43)cc2C(F)(F)F)CC1 [torin1]
- expansion of Vδ2 T cells induced by IPP in presence of mTOR inhibitor ([1]; PBMCs with IPP): significantly reduced
- inhibition of Vδ2 T cell expansion by IPP plus resiquimod, relative to IPP ([1]; PBMCs with IPP plus resiquimod and mTOR inhibitor): more prominent
